Measured values taken from PubChem BioAssay (NCI).
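Where inhibition never reached the appropriate level, the endpoint shown equals the highest concentration tested. Otherwise, values were interpolated linearly from a five-concentration, 48-hour dose response in 96-well plates. TGI denotes the concentration required for complete inhibition of growth.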

How the values were obtained:
Assay in all cases: DTP human tumour cell line panel, 48 h
[1] = test system: 786-0 renal
[2] = test system: A498 renal
[3] = test system: A549 NSCLC
[4] = test system: ACHN renal
[5] = test system: CAKI-1 renal
[6] = test system: CCRF-CEM leukemia
[7] = test system: COLO 205 colon
[8] = test system: DLD-1 colon
[9] = test system: DMS 114 small cell lung
[10] = test system: DMS 273 small cell lung
[11] = test system: HCC-2998 colon
[12] = test system: HCT-116 colon
[13] = test system: HCT-15 colon
[14] = test system: HL-60(TB) leukemia
[15] = test system: HOP-18 NSCLC
[16] = test system: HOP-62 NSCLC
[17] = test system: HOP-92 NSCLC
[18] = test system: HT29 colon
[19] = test system: IGROV1 ovarian
[20] = test system: K-562 leukemia
[21] = test system: KM12 colon
[22] = test system: KM20L2 colon
[23] = test system: LOX IMVI melanoma
[24] = test system: LXFL 529 NSCLC
[25] = test system: M14 melanoma
[26] = test system: M19-MEL melanoma
[27] = test system: MALME-3M melanoma
[28] = test system: MOLT-4 leukemia
[29] = test system: NCI-H460 lung
[30] = test system: NCI-H522 lung
[31] = test system: OVCAR-4 ovarian
[32] = test system: OVCAR-5 ovarian
[33] = test system: OVCAR-8 ovarian
[34] = test system: RPMI-8226 leukemia
[35] = test system: RXF 393 renal
[36] = test system: RXF-631 renal
[37] = test system: SF-268 CNS
[38] = test system: SF-295 CNS
[39] = test system: SF-539 CNS
[40] = test system: SK-MEL-2 melanoma
[41] = test system: SK-MEL-5 melanoma
[42] = test system: SK-OV-3 ovarian
[43] = test system: SN12C renal
[44] = test system: SNB-19 CNS
[45] = test system: SNB-75 CNS
[46] = test system: SNB-78 CNS
[47] = test system: SR leukemia
[48] = test system: SW-620 colon
[49] = test system: TK-10 renal
[50] = test system: U251 CNS
[51] = test system: UACC-257 melanoma
[52] = test system: UACC-62 melanoma
[53] = test system: UO-31 renal
[54] = test system: NCI-H226 lung
[55] = test system: NCI-H23 lung
[56] = test system: OVCAR-3 ovarian
[57] = test system: SK-MEL-28 melanoma
[58] = test system: XF 498 CNS

## C=C1CCC2C(C)(CO)C(O)CCC2(C)C1CC(O)/C(=C/CO)C(=O)O (configuration not stated)
[1]
  TGI: > 100 µM
[2]
  TGI: > 100 µM
[3]
  TGI: > 100 µM
[4]
  TGI: > 100 µM
[5]
  TGI: > 100 µM
[6]
  TGI: > 100 µM
[7]
  TGI: > 100 µM
[8]
  TGI: > 100 µM
[9]
  TGI: > 100 µM
[10]
  TGI: > 100 µM
[11]
  TGI: > 100 µM
[12]
  TGI: > 100 µM
[13]
  TGI: > 100 µM
[14]
  TGI: > 100 µM
[15]
  TGI: > 100 µM
[16]
  TGI: > 100 µM
[17]
  TGI: > 100 µM
[18]
  TGI: > 100 µM
[19]
  TGI: > 100 µM
[20]
  TGI: > 100 µM
[21]
  TGI: > 100 µM
[22]
  TGI: > 100 µM
[23]
  TGI: > 100 µM
[24]
  TGI: > 100 µM
[25]
  TGI: > 100 µM
[26]
  TGI: > 100 µM
[27]
  TGI: > 100 µM
[28]
  TGI: > 100 µM
[29]
  TGI: > 100 µM
[30]
  TGI: > 100 µM
[31]
  TGI: > 100 µM
[32]
  TGI: > 100 µM
[33]
  TGI: > 100 µM
[34]
  TGI: > 100 µM
[35]
  TGI: > 100 µM
[36]
  TGI: > 100 µM
[37]
  TGI: > 100 µM
[38]
  TGI: > 100 µM
[39]
  TGI: > 100 µM
[40]
  TGI: > 100 µM
[41]
  TGI: > 100 µM
[42]
  TGI: > 100 µM
[43]
  TGI: > 100 µM
[44]
  TGI: > 100 µM
[45]
  TGI: > 100 µM
[46]
  TGI: > 100 µM
[47]
  TGI: > 100 µM
[48]
  TGI: > 100 µM
[49]
  TGI: > 100 µM
[50]
  TGI: > 100 µM
[51]
  TGI: > 100 µM
[52]
  TGI: > 100 µM
[53]
  TGI: > 100 µM

## COc1cccc(/C=C2\CCC(CCN(C)C)(C3=CCCC3)C2=O)c1 (configuration not stated)
[1]
  TGI: 27.9 µM
[2]
  TGI: 30.8 µM
[3]
  TGI: 32.6 µM
[4]
  TGI: 30.5 µM
[5]
  TGI: 25.2 µM
[6]
  TGI: 40.8 µM
[7]
  TGI: 21.3 µM
[8]
  TGI: 36.4 µM
[9]
  TGI: 31.4 µM
[10]
  TGI: 28 µM
[11]
  TGI: 30.4 µM
[12]
  TGI: 27.7 µM
[13]
  TGI: 31.1 µM
[15]
  TGI: 27.2 µM
[16]
  TGI: 32 µM
[17]
  TGI: 28.6 µM
[18]
  TGI: 29.2 µM
[19]
  TGI: 32.5 µM
[20]
  TGI: 36 µM
[21]
  TGI: 31 µM
[23]
  TGI: 30.2 µM
[24]
  TGI: 28.9 µM
[25]
  TGI: 27.4 µM
[26]
  TGI: 30 µM
[27]
  TGI: 31.2 µM
[28]
  TGI: 34.1 µM
[54]
  TGI: 31.2 µM
[55]
  TGI: 41.4 µM
[29]
  TGI: 29.9 µM
[30]
  TGI: 26.9 µM
[56]
  TGI: 34 µM
[31]
  TGI: 30.5 µM
[32]
  TGI: 28.1 µM
[33]
  TGI: 32.1 µM
[34]
  TGI: 41.7 µM
[35]
  TGI: 21.7 µM
[36]
  TGI: 43.4 µM
[37]
  TGI: 45.6 µM
[38]
  TGI: 31.1 µM
[39]
  TGI: 29.7 µM
[40]
  TGI: 29.9 µM
[57]
  TGI: 31.3 µM
[41]
  TGI: 32.4 µM
[43]
  TGI: 28.6 µM
[44]
  TGI: 31.1 µM
[45]
  TGI: 35 µM
[47]
  TGI: 57.4 µM
[48]
  TGI: 27.1 µM
[49]
  TGI: 29.3 µM
[50]
  TGI: 30.6 µM
[51]
  TGI: 28.8 µM
[52]
  TGI: 30 µM
[53]
  TGI: 26.5 µM
[58]
  TGI: 31.9 µM
